Reference: US6737383B1, “Herbicidal oxadiazolidines” (priority 1999, dated 2004)

Key:
smallflower flatsedge = test: Test B flood test smallflower flatsedge; type: in vivo, Cyperus difformis; details: for Plant response rating, S. Flatsedge (0 to 10 scale, 0 is no effect, 10 is complete control): Rate 62 g/ha; for Plant response rating, S. Flatsedge (0 to 10 scale, 0 is no effect, 10 is complete control) / S. Flatsedge plant response rating (0 to 10 scale, 0 is no effect, 10 is complete control): visual evaluation after twelve to sixteen days; for S. Flatsedge plant response rating (0 to 10 scale, 0 is no effect, 10 is complete control): Rate 125 g/ha, under heading Pre-emergence
Procedure, shortened: (§1)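 Flood test on plants grown to the 2-leaf stage; treated plants kept in greenhouse twelve to sixteen days, then visually rated against controls on a 0 (no effect) to 10 (complete control) scale.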

rape = test: Test B pre/postemergence rape; type: in vivo, Brassica napus
Procedure, shortened: (§2)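 Herbicidal effect was estimated by eye on a ten-point control scale after plants spent twelve to sixteen days in a greenhouse following soil or foliar treatment. Foliar sprays targeted plants at one to four leaves; all doses were formulated in a non-phytotoxic solvent with surfactant.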

bamyardgrass = test: Test B flood test barnyardgrass; type: in vivo, Echinochloa crus-galli; details: for Plant response rating, Barnyardgrass (0 to 10 scale, 0 is no effect, 10 is complete control): Rate 62 g/ha; for Plant response rating, Barnyardgrass (0 to 10 scale, 0 is no effect, 10 is complete control) / Barnyardgrass plant response rating (0 to 10 scale, 0 is no effect, 10 is complete control): visual evaluation after twelve to sixteen days; for Barnyardgrass plant response rating (0 to 10 scale, 0 is no effect, 10 is complete control): Rate 125 g/ha, under heading Pre-emergence
Procedure, shortened: as §1

morningglory = test: Test B pre/postemergence morningglory; type: in vivo, Ipomoea hederacea
Procedure, shortened: as §2

[1] = flood test species, Pre-emergence
[2] = Rate 250 g/ha, Pre-emergence (flood test species), scale 0 to 10, 0 is no effect, 10 is complete control
[3] = Rate 500 g/ha, Pre-emergence, flood test species, scale 0 to 10 (0 no effect, 10 complete control)
[4] = Postemergence, Rate 250 g/ha, scale 0 to 10
[5] = Preemergence, Rate 62 g/ha, scale of 0 to 10 where 0 is no effect and 10 is complete control
[6] = Preemergence, Rate 125 g/ha, scale of 0 to 10 where 0 is no effect and 10 is complete control
[7] = Preemergence, Rate 250 g/ha, scale 0 to 10, 0 is no effect, 10 is complete control
[8] = Preemergence, Rate 500 g/ha, scale 0 to 10, 0 is no effect, 10 is complete control
[9] = Rate 62 g/ha, Postemergence, scale 0 to 10, 0 no effect, 10 complete control
[10] = Rate 125 g/ha, Postemergence, scale 0 to 10, 0 is no effect, 10 is complete control
[11] = Rate 500 g/ha, Pre-emergence section of Table B, 0 to 10 scale (0 no effect, 10 complete control)
[12] = Postemergence, Rate 62 g/ha, scale 0 to 10, 0 is no effect, 10 is complete control
[13] = Postemergence, Rate 125 g/ha, scale of 0 to 10 where 0 is no effect and 10 is complete control
[14] = Postemergence, Rate 500 g/ha, scale of 0 to 10 where 0 is no effect and 10 is complete control
[15] = Preemergence, Rate 250 g/ha, scale 0 to 10 (0 no effect, 10 complete control)
[16] = Preemergence, Rate 500 g/ha, scale of 0 to 10 where 0 is no effect and 10 is complete control

| SMILES | Plant response rating, S. Flatsedge (0 to 10 scale, 0 is no effect, 10 is complete control) (smallflower flatsedge; [1]) | S. Flatsedge plant response rating (0 to 10 scale, 0 is no effect, 10 is complete control) (smallflower flatsedge; flood test species) | S. Flatsedge plant response rating (smallflower flatsedge; [2]) | S. Flatsedge plant response rating (smallflower flatsedge; [3]) | Rape plant response rating (rape; [4]) | Plant response rating, Rape (rape; [5]) | Plant response rating, Rape (rape; [6]) | Rape plant response rating (rape; [7]) | Rape plant response rating (rape; [8]) | Rape plant response rating (rape; [9]) | Rape plant response rating (rape; [10]) | Plant response rating, Barnyardgrass (0 to 10 scale, 0 is no effect, 10 is complete control) (bamyardgrass; [1]) | Barnyardgrass plant response rating (0 to 10 scale, 0 is no effect, 10 is complete control) (bamyardgrass; flood test species) | Barnyardgrass plant response rating (bamyardgrass; [2]) | Barnyardgrass plant response rating (bamyardgrass; [3]) | Morningglory plant response rating (morningglory; [4]) | Plant response rating, Morningglory (morningglory; [5]) | Plant response rating, Morningglory (morningglory; [6]) | Morningglory plant response rating (morningglory; [7]) | Morningglory plant response rating (morningglory; [8]) | further results |
| --- | --- | --- | --- | --- | --- | --- | --- | --- | --- | --- | --- | --- | --- | --- | --- | --- | --- | --- | --- | --- | --- |
| CC(C)N(C(=O)n1oc(=O)n(COCC[Si](C)(C)C)c1=O)c1ccc(Cl)cc1 [Compound 467] | 0 | 0 | 0 | 0 | 4 | 4 | 7 | 7 | 7 | 0 | 0 | 0 | 0 | 0 | 0 | 7 | 0 | 0 | 0 | 0 | Morningglory plant response rating (morningglory; [9]): 3; Morningglory plant response rating (morningglory; [10]): 7 |
| CC(C)N(C(=O)n1oc(=O)n(Cc2nnc(Cl)s2)c1=O)c1ccc(F)cc1F [Compound 645] | 0 | 0 | 0 |  |  |  |  |  |  |  |  | 0 | 0 | 0 |  |  |  |  |  |  | S. Flatsedge plant response rating (smallflower flatsedge; [11]): 0; Plant response rating, Rape (rape; [12]): 0; Rape plant response rating (rape; [13]): 0; Plant response rating, Rape (rape; [14]): 0; Rape plant response rating (rape; [5]): 0; Rape plant response rating (rape; [6]): 0; Plant response rating, Rape (rape; [15]): 0; Plant response rating, Rape (rape; [16]): 0; Barnyardgrass plant response rating (bamyardgrass; [11]): 0; Plant response rating, Morningglory (morningglory; [12]): 0; Morningglory plant response rating (morningglory; [13]): 0; Morningglory plant response rating (morningglory; Postemergence, Rate 250 g/ha, scale of 0 to 10, 0 is no effect, 10 is complete control): 1; Plant response rating, Morningglory (morningglory; [14]): 3; Morningglory plant response rating (morningglory; [5]): 0; Morningglory plant response rating (morningglory; [6]): 0; Plant response rating, Morningglory (morningglory; [15]): 0; Plant response rating, Morningglory (morningglory; [16]): 0 |
| C=CC(OC)n1c(=O)on(C(=O)N(c2ccc(F)cc2)C(C)C)c1=O (stereo not shown) [Compound 452] | 0 | 0 | 0 | 0 | 0 | 0 | 0 | 0 | 0 | 0 | 0 | 0 | 0 | 0 | 0 | 2 | 0 | 0 | 0 | 0 | Morningglory plant response rating (morningglory; [9]): 1; Morningglory plant response rating (morningglory; [10]): 2 |
